Test [1] deals with NCI-H1048 cells. The experiment in a line: MTT proliferation assay, NCI-H1048.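 Further: Dose-response in 96-well plates over 8 or 10 concentration points, with exposure spanning 3-4 cell doublings.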 In kind it is cell-based. As to conditions: 5 days compound exposure, 1:3 serial dilution starting at 10 μM.
The target in test [2] is T1, CyclinB1/CDK1 (Homo sapiens, UniProt P14635).
T1 construct: purchased Eurofins, discovery 14-450
Put plainly: Fluorescence Polarization (FP) competitive binding assay, Cyclin B1/Cdk1.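 Further: fluorescence polarization read after equilibration at room temperature, with IC50 taken from serially diluted dose-response curves.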 As to conditions: 10 nM Cyclin B1/Cdk1, 2 nM FAM probe; average of 2-3 independent experiments; read-out: Cyclin B FP IC50.

Test [3] addresses T2, CyclinE1/CDK2 (Homo sapiens, UniProt P24864).
T2 construct: purchased Eurofins, discovery 14-475
Put plainly: Fluorescence Polarization (FP) competitive binding assay, Cyclin E1/Cdk2.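 Further: readings taken after two-hour equilibration at room temperature in HEPES buffer with NaCl, DTT, NP-40 and BSA, IC50 fitted from eight-concentration serial dilution series.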 As to conditions: 10 nM Cyclin E1/Cdk2, 2 nM FAM probe; average of 2-3 independent experiments; read-out: Cyclin E FP IC50.

The subject of test [4] is OVCAR3 cells. The experiment in a line: MTT proliferation assay, OVCAR3.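 Further: compound given as an 8- or 10-point series, one day after plating, with exposure covering roughly 3-4 cell doublings.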 As to conditions: 5 days compound exposure, 1:3 serial dilution starting at 10 μM. In kind it is cell-based. On the technique in general: Tetrazolium dyes change colour on reduction, which living cells bring about.
The test system of test [5] is WI-38 cells. The experiment in a line: MTT proliferation assay, WI-38.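 Further: Eight- or ten-point dilution series, with exposure length chosen to span about three to four cell doublings.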 The format is cell-based. As to conditions: 3 days compound exposure, 1:3 serial dilution starting at 10 μM.
For test [6], the target named is T3, CyclinA2/CDK2 (Homo sapiens, UniProt P20248).
T3 construct: purchased CRELUX Protein Services
Put plainly: Fluorescence Polarization (FP) competitive binding assay, Cyclin A2/Cdk2.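 Further: plates equilibrated two hours at room temperature before polarization reading, IC50 fitted from eight-concentration compound titration curves.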 As to conditions: 8 nM Cyclin A2/Cdk2, 2 nM FAM probe; average of 2-3 independent experiments; read-out: Cyclin A FP IC50. (In general: In fluorescence polarisation assays a small probe gives low polarisation when free and higher when bound to something large.)

*1 amine or outer side, *2 acyl side, *3 side chain or, on linkers, in order; H or OH if unused. Where a SMILES comes first, the peptide text is derived from it. Bridges are numbered along the chain shown (N, C = ends). [ ]: non-standard residue; d: D form. The star is where a group is joined. X100 = CC(=O)NC1CC=C(c2ccc(Cl)cc2C[C@@H](C(=O)[*:2])N(C)[*:1])CC1; X84 = CC(=O)N1CCC(c2ccc(Cl)cc2C[C@@H](C(=O)[*:2])N(C)[*:1])CC1; X26 = CN([C@@H](Cc1cc(F)ccc1-c1cnn(C2CC2)c1)C(=O)[*:2])[*:1]; NMehhhLys(Me) = CN([C@@H](CCCCCCCN(C)[*:3])C(=O)[*:2])[*:1]; X112 = CN([C@@H](Cc1cc(F)ccc1-c1cnn(C)c1)C(=O)[*:2])[*:1]; X22 = CN([C@@H](Cc1cc(Cl)ccc1-c1cnn(C)c1)C(=O)[*:2])[*:1]; X104 = CN([C@@H](Cc1cc(Cl)ccc1C1=CCOCC1)C(=O)[*:2])[*:1]; NMe(hhhLys) = CN([C@@H](CCCCCCCN[*:3])C(=O)[*:2])[*:1]; Cyclobutanecarbonyl(1-CF3) = O=C(C1(C(F)(F)F)CCC1)*; X88 = CC(C)c1ccc(Cl)cc1C[C@@H](C(=O)[*:2])N(C)[*:1]; cBuCO(3,3-F2-1-CF3) = O=C(C1(C(F)(F)F)CC(F)(F)C1)*; Pro(trans-4-F) = O=C(O)[C@@H]1C[C@@H](F)CN1; Gly(cPr) = N[C@H](C(=O)O)C1CC1

With `CC(C)C[C@@H]1NC(=O)[C@@H](N(C)C(=O)[C@@H](NC(=O)[C@@H]2C[C@@H](F)CN2C(=O)C2(C(F)(F)F)CC(F)(F)C2)C2CC2)CCCCCCCN(C)C(=O)[C@H](Cc2cc(Cl)ccc2-c2cnn(C)c2)N(C)C1=O` [Example 49] ({cBuCO(3,3-F2-1-CF3)}-[Pro(trans-4-F)][Gly(cPr)][NMehhhLys(Me)]L[X22]; lactam 3-C), the GI50 in test [1] is 10 nM; in test [4], 10 nM; in test [5] it was 11500 nM. Further, the IC50 turned out to be 20 nM in test [2], 350 nM in test [3] and 20 nM in test [6].

With `CC(C)C[C@@H]1NC(=O)[C@@H](N(C)C(=O)[C@@H](NC(=O)[C@@H]2C[C@@H](F)CN2C(=O)C2(C(F)(F)F)CC(F)(F)C2)C2CC2)CCCCCCCN(C)C(=O)[C@H](Cc2cc(Cl)ccc2C2=CCOCC2)N(C)C1=O` [Example 51] ({cBuCO(3,3-F2-1-CF3)}-[Pro(trans-4-F)][Gly(cPr)][NMehhhLys(Me)]L[X104]; lactam 3-C), the results for the GI50 in test [1], in test [4] and in test [5] were 10 nM, 10 nM and 18800 nM, respectively. In addition, the IC50 in test [2] was 20 nM; in test [3] it was 890 nM; in test [6] it was 20 nM.

Regarding `CC(=O)N1CCC(c2ccc(Cl)cc2C[C@H]2C(=O)N(C)CCCCCCC[C@H](N(C)C(=O)[C@@H](NC(=O)[C@@H]3C[C@@H](F)CN3C(=O)C3(C(F)(F)F)CC(F)(F)C3)C3CC3)C(=O)N[C@@H](CC(C)C)C(=O)N2C)CC1` [Example 52] ({cBuCO(3,3-F2-1-CF3)}-[Pro(trans-4-F)][Gly(cPr)][NMehhhLys(Me)]L[X84]; lactam 3-C), the GI50 in test [1] worked out at 10 nM; in test [4], 10 nM; in test [5], 13100 nM. Besides, the IC50 in test [2] worked out at 20 nM; in test [3] it was 1130 nM; in test [6] it was 40 nM.

In the case of `CCOC(=O)N1CC=C(c2ccc(Cl)cc2C[C@H]2C(=O)NCCCCC=CC[C@H](N(C)C(=O)[C@@H](NC(=O)[C@@H]3C[C@@H](F)CN3C(=O)C3(C(F)(F)F)CC(F)(F)C3)C3CC3)C(=O)N[C@@H](CC(C)C)C(=O)N2C)CC1` [Example 53, Ethyl 4-(4-chloro-2-(((3S,6S,9S)-9-((S)-2-cyclopropyl-2-((2S,4R)-1-(3,3-difluoro-1-(trifluoromethyl)cyclobutane-1-carbonyl)-4-fluoropyrrolidine-2-carboxamido)-N-methylacetamido)-6-isobutyl-4-methyl-2,5,8-trioxo-1,4,7-triazacyclohexadec-11-en-3-yl)methyl)phenyl)-3,6-dihydropyridine-1 (2H)-carboxylate], the GI50 turned out to be 180 nM in test [1], 180 nM in test [4] and 4500 nM in test [5]. For the same molecule, the IC50 in test [2] was 20 nM; in test [3] it was 12400 nM; in test [6], 90 nM.

As for `CC(=O)NC1CC=C(c2ccc(Cl)cc2C[C@H]2C(=O)N(C)CCCCCCC[C@H](N(C)C(=O)[C@@H](NC(=O)[C@@H]3C[C@@H](F)CN3C(=O)C3(C(F)(F)F)CC(F)(F)C3)C3CC3)C(=O)N[C@@H](CC(C)C)C(=O)N2C)CC1` (stereo partly drawn) [Example 60] ({cBuCO(3,3-F2-1-CF3)}-[Pro(trans-4-F)][Gly(cPr)][NMehhhLys(Me)]L[X100]; lactam 3-C), the GI50 in test [1] is 10 nM; in test [4], 10 nM; in test [5], 5720 nM. Moreover, the half-inhibitory concentration (IC50) in test [2] came out at 20 nM; in test [3] it was 740 nM; in test [6], 20 nM.

In the case of `CC(C)C[C@@H]1NC(=O)[C@@H](N(C)C(=O)[C@@H](NC(=O)[C@@H]2C[C@@H](F)CN2C(=O)C2(C(F)(F)F)CC(F)(F)C2)C2CC2)CCCCCCCNC(=O)[C@H](Cc2cc(Cl)ccc2C(C)C)N(C)C1=O` [Example 63] ({cBuCO(3,3-F2-1-CF3)}-[Pro(trans-4-F)][Gly(cPr)][NMe(hhhLys)]L[X88]; lactam 3-C), the GI50 was found to be 110 nM in test [1], 240 nM in test [4] and 3170 nM in test [5]. For the same molecule, the IC50 in test [2] is 20 nM; in test [3], 3510 nM; in test [6], 120 nM.

On to `CC(C)C[C@@H]1NC(=O)[C@@H](N(C)C(=O)[C@@H](NC(=O)[C@@H]2C[C@@H](F)CN2C(=O)C2(C(F)(F)F)CC(F)(F)C2)C2CC2)CCCCCCCN(C)C(=O)[C@H](Cc2cc(F)ccc2-c2cnn(C3CC3)c2)N(C)C1=O` [Example 68] ({cBuCO(3,3-F2-1-CF3)}-[Pro(trans-4-F)][Gly(cPr)][NMehhhLys(Me)]L[X26]; lactam 3-C), for which the GI50 in test [1] was found to be 10 nM; in test [4] it was 10 nM; in test [5] it was 12800 nM. Besides, the IC50 in test [2] turned out to be 20 nM; in test [3], 120 nM; in test [6], 20 nM.

On to `CC(C)C[C@@H]1NC(=O)[C@@H](N(C)C(=O)[C@@H](NC(=O)[C@@H]2C[C@@H](F)CN2C(=O)C2(C(F)(F)F)CCC2)C2CC2)CCCCCCCN(C)C(=O)[C@H](Cc2cc(F)ccc2-c2cnn(C)c2)N(C)C1=O` [Example 69] ({Cyclobutanecarbonyl(1-CF3)}-[Pro(trans-4-F)][Gly(cPr)][NMehhhLys(Me)]L[X112]; lactam 3-C), for which the GI50 was determined as 10 nM in test [1], 10 nM in test [4] and 17600 nM in test [5]. Moreover, the IC50 in test [2] is 20 nM; in test [3], 110 nM; in test [6] it was 20 nM.

As for `CC(C)C[C@@H]1NC(=O)[C@@H](N(C)C(=O)[C@@H](NC(=O)[C@@H]2C[C@@H](F)CN2C(=O)C2(C(F)(F)F)CCC2)C2CC2)CCCCCCCNC(=O)[C@H](Cc2cc(Cl)ccc2-c2cnn(C)c2)N(C)C1=O` [Example 70] ({Cyclobutanecarbonyl(1-CF3)}-[Pro(trans-4-F)][Gly(cPr)][NMe(hhhLys)]L[X22]; lactam 3-C), the GI50 came to 10 nM in test [1], 10 nM in test [4] and 10100 nM in test [5]. Further, the IC50 is 20 nM in test [2], 290 nM in test [3] and 20 nM in test [6].

`CC(C)C[C@@H]1NC(=O)[C@@H](N(C)C(=O)[C@@H](CC(=O)[C@@H]2C[C@@H](F)CN2C(=O)C2(C(F)(F)F)CC(F)(F)C2)C2CC2)CCCCCCN(C)C(=O)[C@H](Cc2cc(Cl)ccc2C2=CCOCC2)N(C)C1=O` [Example 71]: the GI50 in test [1] was 70 nM; in test [4] it was 90 nM; in test [5], 13800 nM. Moreover, the values for the IC50 in test [2], in test [3] and in test [6] were 20 nM, 1590 nM and 20 nM, respectively.

As for `CC(C)C[C@@H]1NC(=O)[C@@H](N(C)C(=O)[C@@H](NC(=O)[C@@H]2C[C@@H](F)CN2C(=O)C2(C(F)(F)F)CC(F)(F)C2)C2CC2)CCCCCCN(C)C(=O)[C@H](Cc2cc(Cl)ccc2-c2cnn(C)c2)N(C)C1=O` [Example 72], the GI50 was 40 nM in test [1], 60 nM in test [4] and 14900 nM in test [5]. Besides, the IC50 was 20 nM in test [2], 1050 nM in test [3] and 30 nM in test [6].

As for `CC(C)C[C@@H]1NC(=O)[C@@H](N(C)C(=O)[C@@H](NC(=O)[C@@H]2C[C@@H](F)CN2C(=O)C2(C(F)(F)F)CC(F)(F)C2)C2CC2)CCCCCCN(C)C(=O)[C@H](Cc2cc(Cl)ccc2-c2cnn(C3CC3)c2)N(C)C1=O` [Example 73], the GI50 in test [1] was determined as 40 nM; in test [4], 60 nM; in test [5], 3650 nM. Further, the IC50 is 20 nM in test [2], 930 nM in test [3] and 30 nM in test [6].

As for `CC(C)C[C@@H]1NC(=O)[C@@H](N(C)C(=O)[C@@H](NC(=O)[C@@H]2C[C@@H](F)CN2C(=O)C2(C(F)(F)F)CC(F)(F)C2)C2CC2)CC=CCCCCN(C)C(=O)[C@H](Cc2cc(Cl)ccc2-c2cnn(C3CC3)c2)N(C)C1=O` [Example 78], the 50% growth inhibitory concentration (GI50) is 30 nM in test [1], 40 nM in test [4] and 4520 nM in test [5]. The half-inhibitory concentration (IC50) worked out at 20 nM in test [2], 640 nM in test [3] and 40 nM in test [6].

In the case of `COCn1cc(-c2ccc(Cl)cc2C[C@H]2C(=O)N(C)CCCCC=CC[C@H](N(C)C(=O)[C@@H](NC(=O)[C@@H]3C[C@@H](F)CN3C(=O)C3(C(F)(F)F)CCC3)C3CC3)C(=O)N[C@@H](CC(C)C)C(=O)N2C)cn1` [Example 80], the GI50 in test [1] came to 30 nM; in test [4] it was 30 nM; in test [5] it was 11600 nM. Moreover, the IC50 in test [2] is 20 nM; in test [3], 300 nM; in test [6], 40 nM.

As to `CC(C)C[C@@H]1NC(=O)[C@@H](N(C)C(=O)[C@@H](NC(=O)[C@@H]2C[C@@H](F)CN2C(=O)C2(C(F)(F)F)CCC2)C2CC2)CC=CCCCCN(C)C(=O)[C@H](Cc2cc(Cl)ccc2-c2cnn(C3CC3)c2)N(C)C1=O` [Example 81], the GI50 in test [1] is 40 nM; in test [4] it was 50 nM; in test [5] it was 4300 nM. The IC50 in test [2] is 20 nM; in test [3], 300 nM; in test [6] it was 40 nM.

As to `CC(C)C[C@@H]1NC(=O)[C@@H](N(C)C(=O)[C@@H](NC(=O)[C@@H]2C[C@@H](F)CN2C(=O)C2(C(F)(F)F)CC(F)(F)C2)C2CC2)CC=CCCCCN(C)C(=O)[C@H](Cc2cc(F)ccc2-c2cnn(C3CCC3)c2)N(C)C1=O` [Example 88], the GI50 worked out at 30 nM in test [1], 30 nM in test [4] and 7640 nM in test [5]. Further, the results for the IC50 in test [2], in test [3] and in test [6] were 20 nM, 200 nM and 50 nM, respectively.

Broadly, the GI50 is the concentration that inhibits growth by half. A high value points to lower sensitivity of the cells. As a reminder, the IC50 is the concentration that inhibits the measured activity by half.

These data come from US20240408169A1 (priority 2023, published 2024).
